Source: patent EP4541796A1, “EXATECAN DERIVATIVES AND USE THEREOF” (Hangzhou Adcoris Biopharma Co., Ltd, priority 2022, dated 2024)
Like-named read-outs stand apart in the source and are kept apart here.

How the values were obtained:
[1] = test system: breast adenocarcinoma cells SK-BR-3; test: In vitro inhibitory activity of compounds (small molecule toxins), CCK-8 cell growth assay; type: cell-based; details: Homo sapiens; Inhibitory activity against SK-BR-3; small molecules, 72 h incubation
Experimental: (§1) Human esophageal cancer cells OE33, and human breast adenocarcinoma cells SK-BR-3 were cultured in RPMI1640 (Cellmax) containing 10% fetal bovine serum (Cellmax), respectively. Cells in the exponential growth phase were diluted to a concentration of 1×10^5cells/mL by culture medium and added to 96-well cell culture plates at 100µL per well, then incubated overnight in a 37°C incubator with 5% CO2. On the following day, the small molecules were diluted with culture medium to 10,000 nM, 2,000 nM, 400 nM, 80 nM, 16 nM, 3.2 nM, 0.64 nM, 0.13 nM, respectively, and the diluted compounds were added to 96-well cell culture plates at 2 µL per well, with three replicate wells set-up for each concentration, and for the negative and blank control groups, in which the compounds had not been added, 2 µL of dilution was added per well. After the addition, the plates were returned to the 37°C incubator with 5% CO2 to continue incubation for 72 h. After incubation, the cell culture plates were removed, and the culture medium was aspirated using a pipette. Then, 100µL of culture medium containing 10% CCK-8 was added to each well, and the plates were incubated at 37°C for 3 hours. After incubation, the plates were removed, kept in the dark, and placed in ELISAplate. Absorbance was measured at 630nm as the reference wavelength and 450nm as the test wavelength. The IC50 values (Tables 1-3) were calculated using the four-parameter logistic regression method in GraphPad, based on the absorbance values. DNA topoisomerase I inhibitor Dxd was used as positive control drug.

[2] = test system: esophageal cancer cells OE33; test: as above; type: cell-based; details: Homo sapiens
Experimental: as §1

[3] = Inhibitory activity against OE33, small molecules, 72 h incubation, read-out: IC50/nM
[4] = OE33 cells, read-out: IC50 values for inhibiting the growth of esophageal cancer cells

CC[C@@]1(O)C(=O)OCc2c1cc1n(c2=O)Cc2c-1nc1cc(F)c(C)c3c1c2[C@@H](NC(=O)NN)CC3 [Compound 1, Exatecan-N-aminourea]
IC50 [1]: 50 to 100 nM
IC50 [2, 3]: 50 to 100 nM

CC[C@@]1(O)C(=O)OCc2c1cc1n(c2=O)Cc2c-1nc1cc(F)c(C)c3c1c2[C@@H](NC(=O)N(C)N)CC3 [Compound 2, Exatecan-N-methyl-N-aminourea]
IC50 [2, 3]: < 50 nM
IC50 [2, 4]: < 10 nM

CC[C@@]1(O)C(=O)OCc2c1cc1n(c2=O)Cc2c-1nc1cc(F)c(C)c3c1c2[C@@H](NC(=O)N(C)NC)CC3 [Compound 3, Exatecan-N',N-dimethylaminourea]
IC50 [1]: < 50 nM
IC50 [2, 3]: < 50 nM
IC50 [2, 4]: < 10 nM

CC[C@@]1(O)C(=O)OCc2c1cc1n(c2=O)Cc2c-1nc1cc(F)c(C)c3c1c2[C@@H](NC(=O)C(=O)NN)CC3 [Compound 4, Exatecan-N'-amino oxalyldiamine]
IC50 [1]: 50 to 100 nM
IC50 [2, 3]: 50 to 100 nM

CC[C@@]1(O)C(=O)OCc2c1cc1n(c2=O)Cc2c-1nc1cc(F)c(C)c3c1c2[C@@H](NC(=O)C(=O)N(C)N)CC3 [Compound 5, Exatecan N'-amino-N-methyloxalyldiamine]
IC50 [1]: < 50 nM
IC50 [2, 3]: 50 to 100 nM

CC[C@@]1(O)C(=O)OCc2c1cc1n(c2=O)Cc2c-1nc1cc(F)c(C)c3c1c2[C@@H](NC(=O)CNO)CC3 [Compound 6, 2-hydroxyaminoacetyl exatecan]
IC50 [2, 3]: 50 to 100 nM

CC[C@@]1(O)C(=O)OCc2c1cc1n(c2=O)Cc2c-1nc1cc(F)c(C)c3c1c2[C@@H](NC(=O)CNOC)CC3 [Compound 7, 2-methoxyaminoacetyl exatecan]
IC50 [2, 3]: < 50 nM
IC50 [2, 4]: < 10 nM

CC[C@@]1(O)C(=O)OCc2c1cc1n(c2=O)Cc2c-1nc1cc(F)c(C)c3c1c2[C@@H](NC(=O)CONC)CC3 [Compound 8, 2-methylaminooxyacetyl exatecan]
IC50 [1]: < 50 nM
IC50 [2, 3]: < 50 nM
IC50 [2, 4]: < 10 nM

CC[C@@]1(O)C(=O)OCc2c1cc1n(c2=O)Cc2c-1nc1cc(F)c(C)c3c1c2[C@@H](NC(=O)CN(C)N)CC3 [Compound 9, 2-N-methyl-N-aminoacetyl exatecan]
IC50 [2, 3]: < 50 nM
IC50 [2, 4]: < 10 nM

CC[C@@]1(O)C(=O)OCc2c1cc1n(c2=O)Cc2c-1nc1cc(F)c(C)c3c1c2[C@@H](NC(=O)CN(C)NC)CC3 [Compound 10, 2-N-methyl-N-methylaminoacetyl exatecan]
IC50 [2, 3]: 50 to 100 nM

CC[C@@]1(O)C(=O)OCc2c1cc1n(c2=O)Cc2c-1nc1cc(F)c(C)c3c1c2[C@@H](NC(=O)CN(C)O)CC3 [Compound 11, 2-N-methylhydroxyaminoacetyl exatecan]
IC50 [2, 3]: 50 to 100 nM

CCONCC(=O)N[C@H]1CCc2c(C)c(F)cc3nc4c(c1c23)Cn1c-4cc2c(c1=O)COC(=O)[C@]2(O)CC [Compound 12, 2-ethoxyaminoacetyl exatecan]
IC50 [2, 3]: 50 to 100 nM

CC[C@@]1(O)C(=O)OCc2c1cc1n(c2=O)Cc2c-1nc1cc(F)c(C)c3c1c2[C@@H](NC(=O)C1(N)COC1)CC3 [Compound 13, 3-aminooxetane-3-acetyl exatecan]
IC50 [1]: < 50 nM
IC50 [2, 3]: < 50 nM
IC50 [2, 4]: < 10 nM

CC[C@@]1(O)C(=O)OCc2c1cc1n(c2=O)Cc2c-1nc1cc(F)c(C)c3c1c2[C@@H](NC(=O)CO)CC3 [Dxd, reference compound]
IC50 [1]: < 50 nM
IC50 [2, 3]: < 50 nM
